According to US20040186077A1, “Novel heteroaryl phosphonates as cardioprotective agents” (Medicure International Inc., priority 2003, published 2004):

System: Male Wistar rats
Assay: Ischemia reperfusion: LAD occlusion and reperfusion, infarct size as percentage of AAR
Format: in vivo
Details: 32 mg/kg i.v. bolus 5 min before ischemia; regional myocardial ischemia 25 min, reperfusion 2 h; P=0.047 unpaired t-test; vehicle infarct size 56±3% of the AAR
Experimental: Male Wistar rats (200-300 g, Tuck, Rayleigh, Essex, U.K.) were anesthetised with thiopentone sodium (Intraval®, 120 mg/kg i.p.; Rhone-Merrieux, Essex, U.K.). The rats were tracheotomised, intubated and ventilated with a Harvard ventilator (70 strokes/min, tidal volume: 8-10 mL/kg, inspiratory oxygen concentration: 30%). Body temperature was maintained at 38±1° C. The right carotid artery was cannulated and connected to a pressure transducer (MLT 1050, AD Instruments Ltd, Hastings, UK) to monitor mean arterial blood pressure (MAP) and heart rate (HR), which were continuously recorded on a data acquisition system such as Powerlab® Version 4.0.4, AD Instruments, Hastings, UK. The right jugular vein was cannulated for drug administration and the administration of Evans Blue dye (at the end of the experiment). A lateral thoracotomy was performed and the heart was suspended in a temporary pericardial cradle. A snare occluder was placed around the left anterior descending coronary artery (LAD). After completion of the surgical procedure the animals were allowed to stabilise for 30 min before LAD ligation. Five minutes prior to the onset of myocardial ischemia, a bolus injection (i.v.) of either vehicle or phosphonate was administered. The coronary artery was occluded at time 0 by tightening of the occluder. […]

SMILES: Cc1nc(-c2ccccc2)c(C(F)P(=O)(O)O)c(CO)c1O (stereo not shown) [Compound 38, [Fluoro-(5-hydroxy-4-hydroxymethyl-6-methyl-2-phenyl-pyridin-3-yl)-methyl]-phosphonic acid]
- myocardial infarct size: reduced myocardial infarct size
